Tests used:
Assay type in all cases: biochemical
OleT [1] = experiment: Decarboxylation of FAs C22 to C4 employing the FDH-CamAB-OleT redox-cascade; conditions: for Conversion / Selectivity α-Olefin / α-Olefin / Selectivity β-OH / Selectivity n-Alkanone / Selectivity α-OH: 10 mM substrate
Experimental: (§1) Enzymatic reactions (1 mL scale) were quenched by addition of 100 μL 5 N Extraction of substrate and products was performed with 500 μL EtOAc containing 0.1% 1-decanol as internal standard. The organic phase was dried over anhydrous Na2SO4. Derivatization of carboxylic acids (fatty acids and hydroxy acids) to the corresponding methyl esters was achieved by mixing the organic phase with MeOH (2.5:1.5 v/v) followed by supplementation of 5 to 15 μL of 2 M TMSCHN2 (trimethylsilyldiazomethane in diethyl ether). The mixture was incubated for 30 min, 25° C. and 750 rpm before injection into GC-FID or GC-MS, Extraction and derivatization of products and substrates from conversion of short chain FAs ([…]) was performed using the same protocol but all steps were performed on ice to prevent undesired loss of volatile products.
(§2) Products from FA substrates with chain lengths ranging from C22 to C10 were separated on a HP5 column (Programm) and detected by GC-FID or GC-MS. Extracted products from conversion of nonanoic acid (I-octene as product) were separated on a DB1702 column (Programm) and detected by GC-FID. Authentic standards of substrates and terminal olefins were treated as described above and were used as references for identification and preparation of calibration curves. Detection of volatile short chain terminal olefins (1-butene/1-propene [ongoing] to 1-heptene) was accomplished by manual injection from vial headspaces into GC-MS, in order to prevent loss of products, the vials containing the reaction mixtures were sealed with a PTFE septum. After conversion the closed vial was heated for 10 min at 80° C., together with a 10 ml syringe (TYPE). From the headspace 2 to 9 μl volumes were injected splitless into a GC-MS chromatograph and analytes were separated on a HP5 column (Programm). Calibration curves for 1-pentene, 1-hexene and 1-heptene were prepared in the same way at 4° C. and using 5% DMF as cosolvent.
The substrate scope of OleT was further investigated by varying the FA chain length from C3 to C22. […] For the first time, short EAs could be decarboxylated to the corresponding olefins, covering the whole spectrum from C11 down to C4. […] Due to the high volatility of short chain olefins, product work up was done at 4° C. […] (2.53 mM product from 5 mM lauric acid). Head-space analysis by GC-MS from reactions with short chain FAs (C8-C5) confirmed the formation of the respective α-olefins, allowing the first biotechnological access to 1-heptene, 1-hexene and 1-pentene and 1-butene with OleT.
Conversion of heptanoic acid was carried out as described in Example 4 using the OleTCamAB-FDH reaction cascade.
Calibration curves for 1-hexene were prepared accordingly ranging from 0.05 to 2 mM. Due to a strong overlap of […] with the peak areas of CO2 and EtOH (FIG. 1, peaks a, b and c) the ion extraction mode of the GC-MS to generate reliable calibration curves was used. Neither CO2 nor EtOH interfered with the product peak area. This can be seen comparing FIGS. 1 and 5 which allow reliable and linear quantification of 1-hexene (FIG. 6) using manual headspace GC-MS injection.
Manual headspace injection into GC-MS was successfully performed for all substrates with chain lengths of C11 to C6. Conversion of 10 mM heptanoic acid allowed reliable formation of up to 1.3 mM 1-hexene without further optimization of the reaction conditions.

OleT [2] = experiment: Decarboxylation of stearic and palmitic acid by OleT using O2/CamAB or H2O2 as oxidant; conditions: 1 μM OleT, 1 mM substrate
OleT [3] = experiment: Decarboxylation of stearic acid by OleT with CamAB redox cascade and NAD(P)H regeneration system (GDH, PDH, FDH)
Experimental: as §1, §2
After 24 h reaction time, product concentrations of 1.16 mM (0.27 g L-1) 1-heptadecene and 1 mM (0.21 g L-1) 1-pentadecene were obtained but could not be further enhanced. […] Compared to a previously published whole cell reaction system, this FDH-driven system allows 6 times higher product titer and a 21 times higher volumetric productivity with 42.5 mg L-1 h-1 of α-olefin after 8 h reaction time vs: 98 mg L-1 in 48 h) (Table 2).

[4] = 200 μM NADPH + O2, CamAB, 60 min
[5] = 1 mM H2O2, 150 min, no CamAB, strong precipitation observed
[6] = 1 mM NADPH + O2, CamAB, 150 min
[7] = FDH-based regeneration, 5 mM stearic acid
[8] = Formate [8 h], FDH-CamAB, purified OleT 3 μM, 5 mM stearic acid
[9] = Formate, FDH-(Fdr/Fdx) without CamAB, cell free lysate OleT 3 μM, 5 mM stearic acid, 24 h
[10] = Formate, FDH-CamAB, purified OleT 1.5 μM, 5 mM stearic acid, 24 h
[11] = Formate, FDH-CamAB-Fdr/Fdx, cell free lysate OleT 3 μM, 5 mM stearic acid, 24 h
[12] = Glucose, GDH-CamAB, purified OleT 1.5 μM, 5 mM stearic acid, 24 h
[13] = PDH-based regeneration, 5 mM stearic acid
[14] = Phosphite, PDH-CamAB, purified OleT 1.5 μM, 5 mM stearic acid, 24 h

`CCCCCCCCCC(=O)O` [C10, capric acid/decanoic acid] was tested, and the Conversion (OleT [1]; 4 °C, 72 h) was 0.7%, the “Selectivity α-Olefin” value (OleT [1]; 4 °C, 72 h) was >99 % GC-area and the α-Olefin (OleT [1]; 4 °C, 72 h) was 71 µM. The Conversion (OleT [1]; 25 °C, 24 h) was 0.4%, the “Selectivity α-Olefin” value (OleT [1]; 25 °C, 24 h) was >99 % GC-area and the “Selectivity β-OH” value (OleT [1]; 25 °C, 24 h) was “Traces”. It also gave a α-Olefin (OleT [1]; 25 °C, 24 h) of 44 µM.

For `CCCCCCCCCCCC(=O)O` [C12, lauric acid], the product concentration (OleT [1]; 4° C., 5 mM lauric acid) was 2.53 mM, the Conversion (OleT [1]; 4 °C, 72 h) was 33% and the “Selectivity α-Olefin” value (OleT [1]; 4 °C, 72 h) was 73 % GC-area. For the same compound, the “Selectivity β-OH” value (OleT [1]; 4 °C, 72 h) was 30 % GC-area, the α-Olefin (OleT [1]; 4 °C, 72 h) was 3260 µM and the Conversion (OleT [1]; 25 °C, 24 h) was 3%. The α-Olefin (OleT [1]; 25 °C, 24 h) was 273 µM.

With `CCCCCCCCCCCCCCCC(=O)O` [Palmitic Acid, palmitic acid] the Conversion (OleT [1]; 4 °C, 72 h) was 21%, the “Selectivity n-Alkanone” value (OleT [1]; 4 °C, 72 h) was 6 % GC-area and the “Selectivity α-OH” value (OleT [1]; 4 °C, 72 h) was <1 % GC-area. For the same compound, the “Selectivity α-Olefin” value (OleT [1]; 4 °C, 72 h) was 80 % GC-area, the “Selectivity β-OH” value (OleT [1]; 4 °C, 72 h) was 14 % GC-area and the α-Olefin (OleT [1]; 4 °C, 72 h) was 2059 µM. The Conversion (OleT [1]; 25 °C, 24 h) was 11%, the “Selectivity n-Alkanone” value (OleT [1]; 25 °C, 24 h) was 8 % GC-area and the “Selectivity α-OH” value (OleT [1]; 25 °C, 24 h) was 3 % GC-area. For the same compound, the “Selectivity α-Olefin” value (OleT [1]; 25 °C, 24 h) was 72 % GC-area, the “Selectivity β-OH” value (OleT [1]; 25 °C, 24 h) was 23 % GC-area and the α-Olefin (OleT [1]; 25 °C, 24 h) was 1111 µM. The Coupling (OleT [2]; 200 μM H2O2, 60 min, no CamAB) was 33%, the TOF (OleT [2]; 200 μM H2O2, 60 min, no CamAB) was 65 h⁻¹ and the TON (OleT [2]; 200 μM H2O2, 60 min, no CamAB) was 65. For the same compound, the α-Olefin (OleT [2]; 200 μM H2O2, 60 min, no CamAB) was 65 µM, the Coupling (OleT [2]; 200 μM NADH + O2, CamAB, 6 min) was 3% and the TOF (OleT [2]; 200 μM NADH + O2, CamAB, 6 min) was 60 h⁻¹. The TON (OleT [2]; 200 μM NADH + O2, CamAB, 6 min) was 60, the α-Olefin (OleT [2]; 200 μM NADH + O2, CamAB, 6 min) was 6 µM and the Coupling (OleT [2]; [4]) was 10%. It also gave a TOF (OleT [2]; [4]) of 21 h⁻¹, a TON (OleT [2]; [4]) of 21 and a α-Olefin (OleT [2]; [4]) of 21 µM. The Coupling (OleT [2]; [5]) was 7%, the TOF (OleT [2]; [5]) was 29 h⁻¹ and the TON (OleT [2]; [5]) was 29. For the same compound, the α-Olefin (OleT [2]; [5]) was 73 µM, the Coupling (OleT [2]; 1 mM NADH + O2, CamAB, 60 min) was 1% and the TOF (OleT [2]; 1 mM NADH + O2, CamAB, 60 min) was 9 h⁻¹. For the same compound, the TON (OleT [2]; 1 mM NADH + O2, CamAB, 60 min) was 9, the α-Olefin (OleT [2]; 1 mM NADH + O2, CamAB, 60 min) was 9 µM and the Coupling (OleT [2]; [6]) was 3%. For the same compound, the TOF (OleT [2]; [6]) was 13 h⁻¹, the TON (OleT [2]; [6]) was 33 and the α-Olefin (OleT [2]; [6]) was 33 µM.

For `CCCCCCCCCCCCCCCCCC(=O)O` [Stearic Acid, stearic acid], the Conversion (OleT [3]; [7]) was 62%, the TIN (OleT [3]; [7]) was 2096 and the “volumetric productivity of α-olefin” value (OleT [3]; FDH-driven system, after 8 h reaction time) was 42.5 mg/L/h. For the same compound, the Product (OleT [3]; [8]) was 0.34 g/L, the TTN (OleT [3]; [8]) was 473 and the α-Olefin (OleT [3]; [8]) was 1419 µM. The Product (OleT [3]; [9]) was 0.1 g/L, the TTN (OleT [3]; [9]) was 151 and the α-Olefin (OleT [3]; [9]) was 452 ± 52 µM. For the same compound, the Product (OleT [3]; [10]) was 0.75 g/L, the TTN (OleT [3]; [10]) was 2096 and the α-Olefin (OleT [3]; [10]) was 3144 ± 121 µM. It also gave a Product (OleT [3]; [11]) of 0.37 g/L, a TTN (OleT [3]; [11]) of 522 and a α-Olefin (OleT [3]; [11]) of 1565 ± 20 µM. For the same compound, the Conversion (OleT [3]; GDH-based system, 1 mM stearic acid) was 36%, the TIN (OleT [3]; GDH-based system, 10 mM stearic acid) was “up to 389” and the Product (OleT [3]; [12]) was 0.24 g/L. It also gave a TTN (OleT [3]; [12]) of 680, a α-Olefin (OleT [3]; [12]) of 1020 ± 63 µM and a Conversion (OleT [3]; [13]) of 52%. For the same compound, the TIN (OleT [3]; [13]) was 1739, the Product (OleT [3]; [14]) was 0.62 g/L and the TTN (OleT [3]; [14]) was 1739. The α-Olefin (OleT [3]; [14]) was 2609 ± 256 µM, the Conversion (OleT [1]; 4 °C, 72 h) was 25% and the “Selectivity n-Alkanone” value (OleT [1]; 4 °C, 72 h) was 5 % GC-area. The “Selectivity α-OH” value (OleT [1]; 4 °C, 72 h) was <1 % GC-area, the “Selectivity α-Olefin” value (OleT [1]; 4 °C, 72 h) was 93 % GC-area and the “Selectivity β-OH” value (OleT [1]; 4 °C, 72 h) was 5 % GC-area. The α-Olefin (OleT [1]; 4 °C, 72 h) was 2451 µM, the Conversion (OleT [1]; 25 °C, 24 h) was 39% and the “Selectivity n-Alkanone” value (OleT [1]; 25 °C, 24 h) was 6 % GC-area. The “Selectivity α-OH” value (OleT [1]; 25 °C, 24 h) was 2 % GC-area, the “Selectivity α-Olefin” value (OleT [1]; 25 °C, 24 h) was 86 % GC-area and the “Selectivity β-OH” value (OleT [1]; 25 °C, 24 h) was 8 % GC-area. For the same compound, the α-Olefin (OleT [1]; 25 °C, 24 h) was 3886 µM, the maximum product concentration (OleT [1]; RT, 5 mM stearic acid) was 2.45 mM and the Coupling (OleT [2]; 200 μM H2O2, 60 min, no CamAB) was 85%. The TOF (OleT [2]; 200 μM H2O2, 60 min, no CamAB) was 170 h⁻¹, the TON (OleT [2]; 200 μM H2O2, 60 min, no CamAB) was 170 and the α-Olefin (OleT [2]; 200 μM H2O2, 60 min, no CamAB) was 170 ± 7 µM. For the same compound, the Coupling (OleT [2]; 200 μM NADH + O2, CamAB, 6 min) was 7%, the TOF (OleT [2]; 200 μM NADH + O2, CamAB, 6 min) was 150 h⁻¹ and the TON (OleT [2]; 200 μM NADH + O2, CamAB, 6 min) was 15. The α-Olefin (OleT [2]; 200 μM NADH + O2, CamAB, 6 min) was 15 ± 1 µM, the Coupling (OleT [2]; [4]) was 25% and the TOF (OleT [2]; [4]) was 53 h⁻¹. It also gave a TON (OleT [2]; [4]) of 53, a α-Olefin (OleT [2]; [4]) of 53 ± 5 µM and a Coupling (OleT [2]; [5]) of 5%. It also gave a TOF (OleT [2]; [5]) of 21 h⁻¹, a TON (OleT [2]; [5]) of 53 and a α-Olefin (OleT [2]; [5]) of 53 ± 15 µM. It also gave a Coupling (OleT [2]; 1 mM NADH + O2, CamAB, 60 min) of 2%, a TOF (OleT [2]; 1 mM NADH + O2, CamAB, 60 min) of 20 h⁻¹ and a TON (OleT [2]; 1 mM NADH + O2, CamAB, 60 min) of 20. For the same compound, the α-Olefin (OleT [2]; 1 mM NADH + O2, CamAB, 60 min) was 20 ± 2 µM, the Coupling (OleT [2]; [6]) was 11% and the TOF (OleT [2]; [6]) was 47 h⁻¹. For the same compound, the TON (OleT [2]; [6]) was 118 and the α-Olefin (OleT [2]; [6]) was 118 ± 23 µM.
